Test results from patent US20090082303A1, “DRUG FOR PREVENTING AND TREATING ATHEROSCLEROSIS” (Takeda Pharmaceutical Company Limited, priority 2004, published 2009).

Experiments:
[1] = system: mouse GM3 synthase; assay: Effect of IFN-γ on expression of mouse GM3 synthase in mouse peritoneal macrophage cells (TaqMan PCR); type: cell-based; settings: 24 hours, GAPDH internal standard, ΔΔCt, without IFN-γ = 1
Protocol: In accordance with the method by Hakamada et al. [Jikken-igaku (Experimental Medicine), Supplementary Volume, Vol. 14, No. 12, “Junnkan Kenkyu Protocol (Protocol for study on circulation)”, pp. 49-52, 1996], from C57BL/6j mouse after the intraperitoneal injection of thioglycolate, peritoneal macrophage was prepared. The cells were suspended in 10% FBS-DMEM culture medium to be 1.5-2×10^6 cells/mL, and were seeded on 12-well plate at 1 mL/well. After overnight culture at 37° C. in the presence of 5% CO2, the cells were washed with PBS. The 1% FBS-DMEM culture medium containing mouse recombinant IFN-γ at prescribed concentration was added to the cells, and cultivation was performed for 24 hours.
After washing the cells once with PBS, using RNeasy Mini Kit (QIAGEN) total RNA was prepared. Subsequently, using TaqMan Reverse Transcription Reagents (Applied Biosystems) cDNA was prepared. By TaqMan PCR method Using TaqMan Universal PCR Master Mix (Applied Biosystems), the expression level of GM3 synthase was quantified. As TaqMan probe and primers for mouse GM3 synthase, Assays-on-Demand (Mm00488232_ml) supplied from Applied Biosystems was used.
(§1) In quantification, an expression level of GAPDH was used as internal standard. By ΔΔCt method, relative value was calculated based on the conditions without treatment of IFN-γ as 1 (one).

[2] = system: GM3 synthase; assay: Effect of shRNA expressing retrovirus on GM3 synthase activity in RAW264.7 strain; type: cell-based; settings: crude enzyme from retrovirus-infected RAW264.7; uninfected RAW264.7 = 1
Protocol: RAW264.7 strain purchased from ATCC (Raschke W C, et al., Cell, Vol. 15, pp. 261-267, 1978) was suspended in 10% FBS-DMEM culture medium to be 1×10^5 cells/ml, and was seeded on 12-well plate at 1 ml/well. After overnight incubation at 37° C. in the presence of 5% CO2, retrovirus, which expressed sequences for shRNA (short hairpin RNA), SHI (SEQ ID NO: 5) or SH3 (SEQ ID NO: 6), was infected to RAW264.7 strain. After overnight culture, the medium was replaced with 10% FBS-DMEM culture medium and the cells were cultured to confluent state. Using these cells, in accordance with the method in EXAMPLE 4, crude enzyme was prepared to assay GM3 synthase activity. Based on the value of the enzyme activity from RAW264.7 strain as 1 (one), the value from the virus-infected cells was calculated as relative value.

[3] = system: RAW264.7 strain; assay: Effect of GM3 synthase knock-down on cholesterol efflux from RAW264.7 strain; type: cell-based; settings: [3H] cholesterol efflux to Apolipoprotein A1 20 μg/ml, 6 hours; uninfected RAW264.7 = 1
Protocol: RAW264.7 strain infected with the retrovirus that expresses shRNA targeting GM3 synthase was suspended in 10% FBS-DMEM culture medium to be 1.5-2×10^6 cells/ml and was seeded on 12-well plate at 1 mL/well. After overnight culture at 37° C. in the presence of 5% CO2, the cells were washed with PBS. Then, after adding 1% FBS-DMEM culture medium, which contained [^3H] cholesterol-labeled βVLDL (final concentration: 150 μg of total cholesterol/ml), the cells were cultured for overnight. The cells were washed twice with 0.2% BSA-PBS and further washed with PBS. After replacing the medium with 0.1% BSA-DMEM culture medium, the cells were cultivated for one day. After replacing 20 μg/ml of Apolipoprotein A1 containing 0.1% BSA-DMEM culture medium, the cells were cultured for 6 hours. Cultured supernatant was collected, and radioactivity of the supernatant, from which cell debris was removed by centrifugation, was measured with the liquid scintillation counter. […] After incubation at 37° C. for overnight, radioactivity of the cell lysate was measured with the liquid scintillation counter. A ratio of the radioactivity of the culture supernatant to the summation of the radioactivity of the culture supernatant and the cell lysate was calculated. […] Based on the value from RAW264.7 strain as 1 (one), the value from the virus-infected cells was calculated as relative value.

[4] = system: human GM3 synthase; assay: GM3 synthase inhibitor screening (1): BODIPY-lactosylceramide, HPTLC fluorescence; type: biochemical; settings: 73 without CMP
Protocol: (§2) The cell line stably expressing human GM3 synthase, which was established by transducing human GM3 synthase gene into RAW264.7 strain purchased from ATCC (Raschke W C, et al., Cell, Vol. 15, pp. 261-267, 1978) with retrovirus vector, was cultured in 10% FBS-DMEM culture medium. After culturing to confluent state, the cells were washed once with PBS and harvested. After weighing wet cells, the cells were suspended in 3 (three) volumes of buffer solution (15 mM sodium cacodilate (pH6.5), 5% glycerol). By ultrasonication, the cells were disrupted, and the supernatant, of which cell debris was excluded by centrifugation, was used as a crude enzyme solution. Protein concentration of the crude enzyme solution was determined using BCA protein assay kit(BIO RAD, Inc.).
BODIPY-lactosylceramide (Molecular Probes, Inc.) in chloroform solution was dried in Eppendorf tube under nitrogen flow. 4× reaction buffer solution consisting of 400 mM sodium cacodylate (pH6.5), 1.6% Triton X-100, 40 mM MgCl2 and 8 mM 2,3 dehydro-2-deoxy-N-acetylneuraminic acid was added to the tube. After vortexing, it was sufficiently dissolved by ultrasonication for 20 seconds in sonicator bath and was used as a substrate solution.
Ten μl of substrate solution, 10 μl of 800 μM CMP-sialic acid, 10 μl of crude enzyme solution and 10 μl of sample were admixed and followed by incubating at 37° C. for one hour. As a sample, cytidine mono phosphate (CMP), wherein the inhibitory effect to GM3 synthase activity is reported, was used (Biochem. Biophys. Res. Commun., Vol. 193, pp. 585-590, 1993). One milliliter of chloroform/methanol mixture (2:1) was added to the reaction mixture to terminate the reaction. After mixing, ultrasonication was done for 30 minutes in sonicator bath. Supernatant was recovered by centrifugation at 15,000 rpm for 5 minutes. Pellet was further washed with 200 μl of chloroform/methanol mixture (2:1) and recovered its supernatant by centrifugation at 15,000 rpm for 5 minutes. Collected supernatant was dried under nitrogen flow, and residue was re-suspended in 50 μl of chloroform/methanol mixture (2:1). Twenty μl of the supernatant isolated by centrifugation was spotted on HPTLC (Merck, Inc.) and was developed with solvent system consisting of chloroform/methanol/0.2% CaCl2 aqueous solution (50:45:10). After development, fluorescent intensity was measured with LAS-1000 (Fuji Film, Inc.). Fluorescent intensity of both the substrate, BODIPY-lactosylceramide and the product, BODIPY-GM3 was measured, respectively to calculate a ratio of GM3 produced to lactosylceramide added. The activity was calculated as an amount of GM3 (nmol) produced/hour/mg of protein in the crude enzyme solution.
GM3 synthase activity(nmol/mg/hr)=BODIPY-GM3(AU)/(BODIPY-lactosylceramide(AU)+BODIPY-GM3(AU))×10 nmol×1/(protein weight (mg)×reaction time(hr))
AU means a numerical value determined with LAS-1000.

[5] = system: human GM3 synthase; assay: GM3 synthase inhibitor screening (2): Phospholipid FlashPlate, CMP-[14C] sialic acid; type: biochemical; settings: without CMP = 1
Protocol: as §2
Coating of lactosylceramide, the substrate for GM3 synthase to Phospholipid FlashPlate (PerkinElmer, Inc.) was carried out by the method as described below. 200 μM lactosylceramide-reaction buffer solution consisting of 100 mM sodium cacodylate (pH6.5) and 10 mM MgCl2 was dispensed on the plate at 200 μl/well and followed by standing at room temperature for overnight. After washing the plate once with PBS, 30 μM lactosylceramide-reaction buffer solution was dispensed at 70 μl/well.
Ten microliter of the crude enzyme solution prepared by the procedure in EXAMPLE 4, 10 μl of CMP solution and 10 μl of 500 μM CMP-[^14C] sialic acid (Amersham; 5×10^4 cpm/well) were admixed and incubated at 37° C. for 3 (three) hours. Radioactivity was measured by Topcount (PerkinElmer, Inc.).
A well, in which buffer solution for cell suspension was added instead of the crude enzyme was used as a blank. A value obtained by subtract the cpm value of blank well from the cpm value of sample well was used as a value for enzyme activity.
Relative value was calculated based on the conditions without treatment of CMP as 1 (one).

[6] = system: human GM3 synthase; assay: Effect of IFN-γ on expression of human GM3 synthase in THP-1 cells (TaqMan PCR); type: cell-based; settings: 24 hours, THP-1 macrophage-like cells, without IFN-γ = 1
Protocol: THP-1 cells suspended in RPMI-1640 culture medium containing phorbol 12-myristeate 13-acetate (final concentration: […]), in which 10% FBS, 25 mM HEPES and Penicillin/Streptomycin were comprised, were seeded on 24-well plate at 1.0×10^6 cells/well and treated, for 3 (three) days to differentiate into macrophage-like cells. After washing the cells with PBS, RPMI-1640 culture medium containing human recombinant IFN-γ at a prescribed concentration was added to the cells. Subsequently, the cells were cultured for 24 hours.
As TaqMan probe and primers for human GM3 synthase, Assays-on-Demand (Hs00187405 ml) supplied from Applied Biosystems was used.
as §1

With “mIFN-γ: mouse recombinant IFN-γ, known as the atherogenic cytokine” the “Expression (mouse GM3 synthase mRNA, relative value)” value ([1]; mIFN-γ 1 U/mL) was 4 and the “Expression (mouse GM3 synthase mRNA, relative value)” value ([1]; mIFN-γ 10 U/mL) was 25.

“SH1: retrovirus expressing shRNA (short hairpin RNA) sequence SEQ ID NO: 5 targeting GM3 synthase (GAAGACCCAGCTTGTTAATGTGTGCTGTCCATTAACAAGCTGGGTCTTCTTTTT)” was tested, and the “GM3 synthase activity (relative value)” value [2] was 0.3 and the “cholesterol transporting activity (relative value)” value [3] was 1.3.

“SH3: retrovirus expressing shRNA (short hairpin RNA) sequence SEQ ID NO: 6 targeting GM3 synthase (GCCAATGATTTGTTCGTTAGTGTGCTGTCCTAACGAACAAATCATTGGCTTTTT)” was tested, and the “GM3 synthase activity (relative value)” value [2] was 0.5 and the “cholesterol transporting activity (relative value)” value [3] was 1.1.

In the case of `Nc1ccn([C@@H]2O[C@H](COP(=O)(O)O)[C@@H](O)[C@H]2O)c(=O)n1` [CMP, cytidine mono phosphate], the GM3 synthase activity ([4]; CMP 0.1 mM) is reported as 46 nmol/mg/h, the GM3 synthase activity ([4]; CMP 0.3 mM) is reported as 27 nmol/mg/h and the GM3 synthase activity ([4]; CMP 1 mM) is reported as 12 nmol/mg/h. For the same molecule, the GM3 synthase activity ([4]; CMP 3 mM) was 5 nmol/mg/h, the GM3 synthase activity ([4]; CMP 10 mM) was 7 nmol/mg/h and the “GM3 synthase activity (relative value)” value ([5]; CMP 0.04 mM) was 1.01. For the same molecule, the “GM3 synthase activity (relative value)” value ([5]; CMP 0.12 mM) was 0.73, the “GM3 synthase activity (relative value)” value ([5]; CMP 0.4 mM) was 0.58 and the “GM3 synthase activity (relative value)” value ([5]; CMP 1.2 mM) was 0.32. The “GM3 synthase activity (relative value)” value ([5]; CMP 4 mM) was 0.28.

B1: hIFN-γ: human recombinant IFN-γ (protein, UniProt P01579 24-161, looked up)
Interferon gamma: QDPYVKEAENLKKYFNAGHSDVADNGTLFLGILKNWKEESDRKIMQSQIVSFYFKLFKNFKDDQSIQKSVETIKEDMNVKFFNSNKKKRDDFEKLTNYSVTDLNVQRKAIHELIQVMAELSPAAKTGKRKRSQMLFRG
For B1, the “Expression level (human GM3 synthase mRNA, relative value)” value ([6]; hIFN-γ 10 ng/mL) was 2.6 and the “Expression level (human GM3 synthase mRNA, relative value)” value ([6]; hIFN-γ 30 ng/mL) was 2.4.
